Reference: PMC6104039 (Nature Communications, 2018)

Columns and labels:
Assay type in all cases: biochemical
human CerS2 = target: T1, human CerS2 (Homo sapiens, UniProt Q96G23); test: Ceramide synthase assay, NBD-dihydrosphingosine, C24:1-CoA; HEK293 cells expressing human CerS2; details: inhibitor range 10 nM–100 μM; read-out: IC50 hCerS2
T1 sequence (Q96G23 1-380): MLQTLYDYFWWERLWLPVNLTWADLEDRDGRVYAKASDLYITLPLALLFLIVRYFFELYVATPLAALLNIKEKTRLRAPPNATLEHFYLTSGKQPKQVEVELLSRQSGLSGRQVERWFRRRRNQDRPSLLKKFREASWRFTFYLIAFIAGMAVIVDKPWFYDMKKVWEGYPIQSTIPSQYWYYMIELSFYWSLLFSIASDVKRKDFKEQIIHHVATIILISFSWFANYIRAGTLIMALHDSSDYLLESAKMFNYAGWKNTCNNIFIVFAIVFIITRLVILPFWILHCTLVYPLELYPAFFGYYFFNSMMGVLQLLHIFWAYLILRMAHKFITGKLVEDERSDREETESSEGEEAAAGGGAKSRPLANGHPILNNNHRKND
Protocol: (§1) Ceramide synthase assays were carried out using an HPLC-based assay with a fluorescent NBD-dihydrosphingosine substrate. All cell lines used for these assays were originally sourced from ATCC. […] Cells were sonicated in a Diagenode Bioruptor sonicating bath for 5 min, after which cell extracts were cleared by centrifugation at 800 × g for 10 min. Protein concentration in the supernatant was assayed using the bicinchoninic acid (BCA) assay, and the supernatant stored at −80 °C. COS cells were infected with lentiviral constructs expressing murine CerS1, 2, or 5, then homogenised as described above.
The reaction buffer consisted of 20 mM Hepes pH 7.4, 25 mM KCl, 2 mM MgCl2, 0.5 mM dithiothreitol, 0.1% fatty acid free BSA, 10 μM NBD-dihydrosphingosine and 50 μM fatty acid free BSA. C18:0-CoA was used as the fatty acyl substrate for CerS1 and CerS4; C24:1-CoA for CerS2; and C16:0-CoA for CerS5 and CerS6. All reactions were run in triplicate. Test inhibitors were added, after which reactions were started with the addition of 2.5–25 μg lysate protein (optimised depending on the particular CerS isoform being assayed). […] The reaction mixture was transferred to a glass HPLC vial with 300 μL fused glass insert (Thermo Fisher Scientific) and NBD-dihydroceramide reaction products were analysed on a Thermo Scientific Surveyor HPLC connected to a Shimadzu RF-10AXL fluorescent detector (set to gain of 3). […] The gradient started at 20:80 A/B, increasing to 5:95 A/B over 2 min, then to 100% B over 6 min. The gradient was then held at 100% B for 2 min, before re-equilibration to 20:80 A/B for a further 2 min. Peak areas were integrated using Xcalibur software (Thermo Fisher Scientific).

human CerS6 = target: T2, human CerS6 (Homo sapiens, UniProt Q6ZMG9); test: Ceramide synthase assay, NBD-dihydrosphingosine, C16:0-CoA; HEK293 cells expressing human CerS6; details: inhibitor range 10 nM–100 μM; read-out: IC50 hCerS6
T2 construct: host or cells: HEK293
T2 sequence (Q6ZMG9 1-384): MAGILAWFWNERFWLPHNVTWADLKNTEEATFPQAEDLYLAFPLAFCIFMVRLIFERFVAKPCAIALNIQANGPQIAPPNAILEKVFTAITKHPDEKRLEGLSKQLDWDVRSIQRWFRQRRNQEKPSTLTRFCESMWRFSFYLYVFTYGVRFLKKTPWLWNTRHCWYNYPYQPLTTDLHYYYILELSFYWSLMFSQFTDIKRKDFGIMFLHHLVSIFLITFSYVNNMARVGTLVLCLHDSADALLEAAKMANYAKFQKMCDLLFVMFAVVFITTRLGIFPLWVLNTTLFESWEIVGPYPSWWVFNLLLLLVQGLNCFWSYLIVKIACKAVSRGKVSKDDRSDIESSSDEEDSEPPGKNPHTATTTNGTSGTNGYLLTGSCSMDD
Protocol: (§2) Ceramide synthase assays were carried out using an HPLC-based assay with a fluorescent NBD-dihydrosphingosine substrate. All cell lines used for these assays were originally sourced from ATCC. […] Human CerS expression plasmids (pCMV6 plasmids from Origene) were transfected using FuGene-6 transfection reagent, and cells were harvested 24 h after transfection in 20 mM Hepes pH 7.4, 10 mM KCl, 1 mM dithiothreitol, 3 mM β-glycerophosphate, and EDTA-free complete protease inhibitor cocktail (Roche). Cells were sonicated in a Diagenode Bioruptor sonicating bath for 5 min, after which cell extracts were cleared by centrifugation at 800 × g for 10 min. Protein concentration in the supernatant was assayed using the bicinchoninic acid (BCA) assay, and the supernatant stored at −80 °C. COS cells were infected with lentiviral constructs expressing murine CerS1, 2, or 5, then homogenised as described above.
The reaction buffer consisted of 20 mM Hepes pH 7.4, 25 mM KCl, 2 mM MgCl2, 0.5 mM dithiothreitol, 0.1% fatty acid free BSA, 10 μM NBD-dihydrosphingosine and 50 μM fatty acid free BSA. C18:0-CoA was used as the fatty acyl substrate for CerS1 and CerS4; C24:1-CoA for CerS2; and C16:0-CoA for CerS5 and CerS6. All reactions were run in triplicate. Test inhibitors were added, after which reactions were started with the addition of 2.5–25 μg lysate protein (optimised depending on the particular CerS isoform being assayed). Assays were run for 30 min at 37 °C, and stopped with the addition of 200 μL methanol. The reaction mixture was transferred to a glass HPLC vial with 300 μL fused glass insert (Thermo Fisher Scientific) and NBD-dihydroceramide reaction products were analysed on a Thermo Scientific Surveyor HPLC connected to a Shimadzu RF-10AXL fluorescent detector (set to gain of 3). […] Data was acquired over a 12 min chromatography run using: solvent A, 0.2% formic acid, 2 mM ammonium formate in water; solvent B, 0.2% formic acid, 1 mM ammonium formate in methanol. The gradient started at 20:80 A/B, increasing to 5:95 A/B over 2 min, then to 100% B over 6 min. The gradient was then held at 100% B for 2 min, before re-equilibration to 20:80 A/B for a further 2 min. Peak areas were integrated using Xcalibur software (Thermo Fisher Scientific).

murine CerS2 = murine CerS2 (Mus musculus, UniProt Q924Z4); test: Ceramide synthase assay, NBD-dihydrosphingosine, C24:1-CoA; COS cells expressing murine CerS2; details: inhibitor range 10 nM–100 μM; read-out: IC50 mCerS2
Sequence of murine CerS2 (Q924Z4 whole entry): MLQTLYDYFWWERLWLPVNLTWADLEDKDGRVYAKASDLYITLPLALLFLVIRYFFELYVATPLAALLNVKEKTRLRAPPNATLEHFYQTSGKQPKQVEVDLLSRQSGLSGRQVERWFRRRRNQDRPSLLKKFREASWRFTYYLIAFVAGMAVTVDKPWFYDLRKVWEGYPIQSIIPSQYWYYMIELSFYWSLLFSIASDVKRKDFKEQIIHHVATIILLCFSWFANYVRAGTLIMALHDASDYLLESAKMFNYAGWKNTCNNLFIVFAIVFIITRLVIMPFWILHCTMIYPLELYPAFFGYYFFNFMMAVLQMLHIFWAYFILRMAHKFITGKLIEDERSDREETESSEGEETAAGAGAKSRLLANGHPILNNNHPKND
Protocol: as §1
(§3) The reaction buffer consisted of 20 mM Hepes pH 7.4, 25 mM KCl, 2 mM MgCl2, 0.5 mM dithiothreitol, 0.1% fatty acid free BSA, 10 μM NBD-dihydrosphingosine and 50 μM fatty acid free BSA. C18:0-CoA was used as the fatty acyl substrate for CerS1 and CerS4; C24:1-CoA for CerS2; and C16:0-CoA for CerS5 and CerS6. All reactions were run in triplicate. […] The reaction mixture was transferred to a glass HPLC vial with 300 μL fused glass insert (Thermo Fisher Scientific) and NBD-dihydroceramide reaction products were analysed on a Thermo Scientific Surveyor HPLC connected to a Shimadzu RF-10AXL fluorescent detector (set to gain of 3). […]

murine CerS1 = target: T3, murine CerS1 (Mus musculus, UniProt P27545); test: Ceramide synthase assay, NBD-dihydrosphingosine, C18:0-CoA; COS cells expressing murine CerS1; details: inhibitor range 10 nM–100 μM; read-out: IC50 mCerS1
T3 construct: expressed in transfected cells; host or cells: COS cells (lentiviral infection)
T3 sequence (P27545 whole entry): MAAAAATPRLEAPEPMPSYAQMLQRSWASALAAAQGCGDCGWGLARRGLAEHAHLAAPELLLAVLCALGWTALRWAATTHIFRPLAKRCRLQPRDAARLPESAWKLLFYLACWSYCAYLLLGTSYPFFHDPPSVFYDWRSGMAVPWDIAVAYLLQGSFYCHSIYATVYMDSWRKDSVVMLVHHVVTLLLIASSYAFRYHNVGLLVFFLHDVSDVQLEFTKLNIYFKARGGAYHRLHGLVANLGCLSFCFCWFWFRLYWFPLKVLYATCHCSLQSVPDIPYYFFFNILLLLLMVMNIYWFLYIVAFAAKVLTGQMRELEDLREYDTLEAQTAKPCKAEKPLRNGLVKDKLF
Protocol: as §2
as §3, with “BSA.” for “BSA. C18:0-CoA was used as the fatty acyl substrate for CerS1 and CerS4; C24:1-CoA for CerS2; and C16:0-CoA for CerS5 and CerS6. All reactions were run in triplicate.”

IC50 (murine CerS2) [µM]	IC50 (murine CerS1) [µM]	Structure (SMILES)	IC50 (human CerS2) [µM]	IC50 (human CerS6) [µM]
		CCCC[C@@H](C)[C@@H](OC(=O)C[C@@H](CC(=O)O)C(=O)O)[C@H](C[C@@H](C)C[C@H](O)CCCC[C@@H](O)C[C@H](O)[C@H](C)N)OC(=O)C[C@@H](CC(=O)O)C(=O)O [FB1, reference compound]	0.15 ± 0.08	0.29 ± 0.05
10.6 ± 0.13	5.6 ± 0.05	CCCCCCCCc1ccc(CCC(N)(CO)CO)cc1 [FTY720, reference compound]	19.1 ± 0.1	5.8 ± 0.2
		C[C@@](N)(CO)CCc1ccc(OCc2ccccc2)cc1 [G024, (2S)-2-amino-4-(4′-benzyloxyphenyl)-2-methyl-1-butanol]	14.5 ± 0.09	8.5 ± 0.13
18.5 ± 0.12	0.46 ± 0.08	C[C@@](N)(CO)CCc1ccc(OCc2ccc(Cl)c(Cl)c2)cc1 [P053, (S)-2-amino-4-(4-(3,4-dichlorobenzyloxy)phenyl)-2-methylbutan-1-ol]	28.6 ± 0.15	11.4 ± 0.17
